Assay results: ChEMBL document CHEMBL3991601, “The target landscape of clinical kinase drugs” (Science, 2017)
The source made the active and inactive calls. Rule as the data show it, for most assays here: actives have a measured Kd and inactives only a lower limit.

Tests used:
[1] = biological target: T1, Mitogen-activated protein kinase kinase kinase 5 (Homo sapiens, UniProt Q99683)
T1 sequence (Q99683 whole entry): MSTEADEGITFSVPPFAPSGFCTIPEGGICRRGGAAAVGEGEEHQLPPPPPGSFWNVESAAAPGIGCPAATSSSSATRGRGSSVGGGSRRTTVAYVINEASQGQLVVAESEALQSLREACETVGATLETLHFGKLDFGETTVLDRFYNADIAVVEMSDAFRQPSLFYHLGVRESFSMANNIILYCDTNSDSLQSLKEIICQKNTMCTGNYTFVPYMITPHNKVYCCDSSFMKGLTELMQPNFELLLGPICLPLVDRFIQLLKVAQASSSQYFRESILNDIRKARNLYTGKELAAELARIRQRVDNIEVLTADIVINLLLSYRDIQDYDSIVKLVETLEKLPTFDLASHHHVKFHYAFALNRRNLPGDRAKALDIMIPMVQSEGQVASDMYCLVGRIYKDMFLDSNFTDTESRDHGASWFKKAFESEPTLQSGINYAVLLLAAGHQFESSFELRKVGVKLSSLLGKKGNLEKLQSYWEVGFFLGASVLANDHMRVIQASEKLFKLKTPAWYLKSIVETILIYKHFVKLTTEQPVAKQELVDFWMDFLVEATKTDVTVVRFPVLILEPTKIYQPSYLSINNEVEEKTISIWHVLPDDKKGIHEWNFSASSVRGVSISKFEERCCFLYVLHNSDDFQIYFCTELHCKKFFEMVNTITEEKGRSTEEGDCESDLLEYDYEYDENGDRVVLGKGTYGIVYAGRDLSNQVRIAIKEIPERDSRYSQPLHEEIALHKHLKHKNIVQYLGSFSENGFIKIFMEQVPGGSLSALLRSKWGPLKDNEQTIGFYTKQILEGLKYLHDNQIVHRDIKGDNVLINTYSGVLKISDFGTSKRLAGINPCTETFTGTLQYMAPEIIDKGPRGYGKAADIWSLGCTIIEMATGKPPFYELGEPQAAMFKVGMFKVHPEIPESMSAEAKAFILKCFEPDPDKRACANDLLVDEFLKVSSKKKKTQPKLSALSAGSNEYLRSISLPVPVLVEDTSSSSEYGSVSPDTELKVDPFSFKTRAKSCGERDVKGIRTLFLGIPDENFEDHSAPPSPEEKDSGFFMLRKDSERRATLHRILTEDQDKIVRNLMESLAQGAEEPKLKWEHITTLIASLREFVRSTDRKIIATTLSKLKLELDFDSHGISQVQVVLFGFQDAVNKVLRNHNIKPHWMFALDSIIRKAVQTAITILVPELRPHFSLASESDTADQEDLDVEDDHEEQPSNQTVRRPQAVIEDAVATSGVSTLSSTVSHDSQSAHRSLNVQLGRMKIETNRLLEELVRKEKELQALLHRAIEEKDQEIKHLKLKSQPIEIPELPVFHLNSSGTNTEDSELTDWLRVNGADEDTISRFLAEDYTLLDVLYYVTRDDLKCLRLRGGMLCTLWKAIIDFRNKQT

Activin receptor type-1B = biological target: T2, Activin receptor type-1B (Homo sapiens, UniProt P36896)
T2 sequence (P36896 whole entry): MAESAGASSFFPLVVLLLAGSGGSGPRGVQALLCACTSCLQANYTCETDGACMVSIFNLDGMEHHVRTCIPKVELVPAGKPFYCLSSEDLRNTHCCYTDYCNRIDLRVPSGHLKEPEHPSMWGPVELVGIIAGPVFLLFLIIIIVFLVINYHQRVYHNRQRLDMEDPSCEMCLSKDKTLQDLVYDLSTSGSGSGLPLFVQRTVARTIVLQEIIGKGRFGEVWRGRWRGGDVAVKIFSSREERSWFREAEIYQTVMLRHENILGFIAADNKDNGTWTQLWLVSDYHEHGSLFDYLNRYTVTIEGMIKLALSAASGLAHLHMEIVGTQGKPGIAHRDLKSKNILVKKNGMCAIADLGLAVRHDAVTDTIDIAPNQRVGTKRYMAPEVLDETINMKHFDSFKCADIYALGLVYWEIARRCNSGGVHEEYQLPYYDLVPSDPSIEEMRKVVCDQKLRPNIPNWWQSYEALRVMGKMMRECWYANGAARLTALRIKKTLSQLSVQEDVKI

[2] = biological target: Mitotic checkpoint serine/threonine-protein kinase BUB1 (Homo sapiens, UniProt O43683)
[3] = biological target: U5 small nuclear ribonucleoprotein 200 kDa helicase (Homo sapiens, UniProt O75643)
Focal adhesion kinase 1 = Focal adhesion kinase 1 (Homo sapiens, UniProt Q05397)
[4] = biological target: Phosphatidylethanolamine-binding protein 1 (Homo sapiens, UniProt P30086)
[5] = biological target: Dual specificity mitogen-activated protein kinase kinase 2 (Homo sapiens, UniProt P36507)
[6] = biological target: Tyrosine-protein kinase Yes (Homo sapiens, UniProt P07947)
Also: in the data inactive means no Kd found up to 30 µM.

Chain of Tyrosine-protein kinase Yes (P07947 whole entry): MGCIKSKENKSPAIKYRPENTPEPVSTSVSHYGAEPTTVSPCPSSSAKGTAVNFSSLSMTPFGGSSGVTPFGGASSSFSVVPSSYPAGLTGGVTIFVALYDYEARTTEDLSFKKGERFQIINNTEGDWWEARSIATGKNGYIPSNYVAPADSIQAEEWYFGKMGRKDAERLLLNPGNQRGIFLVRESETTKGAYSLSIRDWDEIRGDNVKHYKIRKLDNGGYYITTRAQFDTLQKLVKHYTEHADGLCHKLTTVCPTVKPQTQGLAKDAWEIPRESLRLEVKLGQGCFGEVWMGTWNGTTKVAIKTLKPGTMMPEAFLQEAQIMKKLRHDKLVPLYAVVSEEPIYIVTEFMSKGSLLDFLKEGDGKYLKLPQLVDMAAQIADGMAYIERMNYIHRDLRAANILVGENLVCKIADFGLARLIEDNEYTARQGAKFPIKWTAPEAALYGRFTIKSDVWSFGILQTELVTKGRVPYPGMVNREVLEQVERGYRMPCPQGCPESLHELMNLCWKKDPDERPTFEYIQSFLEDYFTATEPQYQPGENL
Chain of U5 small nuclear ribonucleoprotein 200 kDa helicase (O75643 whole entry): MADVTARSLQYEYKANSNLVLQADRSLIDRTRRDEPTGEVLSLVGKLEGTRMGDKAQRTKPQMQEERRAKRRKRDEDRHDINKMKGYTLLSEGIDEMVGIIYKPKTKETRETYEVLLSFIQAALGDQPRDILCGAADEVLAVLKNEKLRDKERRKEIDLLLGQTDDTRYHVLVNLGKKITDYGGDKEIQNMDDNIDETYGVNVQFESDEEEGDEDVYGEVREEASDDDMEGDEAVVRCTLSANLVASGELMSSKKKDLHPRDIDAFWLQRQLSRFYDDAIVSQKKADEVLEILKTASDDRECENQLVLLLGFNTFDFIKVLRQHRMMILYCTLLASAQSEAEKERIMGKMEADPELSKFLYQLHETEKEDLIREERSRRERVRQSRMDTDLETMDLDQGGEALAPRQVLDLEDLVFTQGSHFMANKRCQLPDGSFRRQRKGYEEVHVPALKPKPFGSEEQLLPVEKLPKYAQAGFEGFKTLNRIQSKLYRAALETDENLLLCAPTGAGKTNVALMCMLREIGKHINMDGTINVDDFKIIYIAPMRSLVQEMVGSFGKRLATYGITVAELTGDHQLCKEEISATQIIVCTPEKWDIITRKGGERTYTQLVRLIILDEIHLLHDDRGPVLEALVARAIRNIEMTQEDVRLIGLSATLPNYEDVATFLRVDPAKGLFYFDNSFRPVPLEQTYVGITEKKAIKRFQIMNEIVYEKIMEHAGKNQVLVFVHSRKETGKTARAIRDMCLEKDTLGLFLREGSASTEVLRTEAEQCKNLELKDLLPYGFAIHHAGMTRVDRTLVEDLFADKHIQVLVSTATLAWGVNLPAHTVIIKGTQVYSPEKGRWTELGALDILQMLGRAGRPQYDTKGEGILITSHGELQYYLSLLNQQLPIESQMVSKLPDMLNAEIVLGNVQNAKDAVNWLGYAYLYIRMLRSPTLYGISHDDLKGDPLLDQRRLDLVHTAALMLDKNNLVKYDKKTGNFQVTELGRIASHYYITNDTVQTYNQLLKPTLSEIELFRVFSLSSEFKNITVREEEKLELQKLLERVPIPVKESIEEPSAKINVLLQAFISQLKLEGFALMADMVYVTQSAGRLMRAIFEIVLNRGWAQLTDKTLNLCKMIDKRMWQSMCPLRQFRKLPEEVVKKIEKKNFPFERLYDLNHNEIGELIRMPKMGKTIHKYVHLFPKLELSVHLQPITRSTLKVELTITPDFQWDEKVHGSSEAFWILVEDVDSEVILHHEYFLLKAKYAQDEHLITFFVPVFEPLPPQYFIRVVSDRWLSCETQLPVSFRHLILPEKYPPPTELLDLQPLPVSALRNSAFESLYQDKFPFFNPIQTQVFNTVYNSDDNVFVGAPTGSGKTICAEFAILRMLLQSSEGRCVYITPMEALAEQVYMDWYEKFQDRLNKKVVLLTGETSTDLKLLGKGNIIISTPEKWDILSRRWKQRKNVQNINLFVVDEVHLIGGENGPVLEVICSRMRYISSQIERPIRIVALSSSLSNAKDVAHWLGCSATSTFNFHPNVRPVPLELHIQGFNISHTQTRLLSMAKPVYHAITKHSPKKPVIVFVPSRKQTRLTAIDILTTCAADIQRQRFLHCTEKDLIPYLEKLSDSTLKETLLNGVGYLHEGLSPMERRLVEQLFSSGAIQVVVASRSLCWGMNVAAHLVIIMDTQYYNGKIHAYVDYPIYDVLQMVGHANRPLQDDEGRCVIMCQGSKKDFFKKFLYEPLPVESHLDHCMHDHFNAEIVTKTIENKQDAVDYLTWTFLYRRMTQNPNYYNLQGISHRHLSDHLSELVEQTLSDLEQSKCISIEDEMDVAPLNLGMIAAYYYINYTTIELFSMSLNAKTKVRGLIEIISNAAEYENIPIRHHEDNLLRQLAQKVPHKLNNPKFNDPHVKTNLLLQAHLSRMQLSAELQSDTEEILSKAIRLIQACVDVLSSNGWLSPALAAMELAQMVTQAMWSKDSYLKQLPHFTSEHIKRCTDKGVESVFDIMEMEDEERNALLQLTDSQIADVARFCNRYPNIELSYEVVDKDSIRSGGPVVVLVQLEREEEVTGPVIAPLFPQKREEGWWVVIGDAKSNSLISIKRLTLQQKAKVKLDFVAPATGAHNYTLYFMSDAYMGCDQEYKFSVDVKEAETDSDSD
Chain of Phosphatidylethanolamine-binding protein 1 (P30086 whole entry): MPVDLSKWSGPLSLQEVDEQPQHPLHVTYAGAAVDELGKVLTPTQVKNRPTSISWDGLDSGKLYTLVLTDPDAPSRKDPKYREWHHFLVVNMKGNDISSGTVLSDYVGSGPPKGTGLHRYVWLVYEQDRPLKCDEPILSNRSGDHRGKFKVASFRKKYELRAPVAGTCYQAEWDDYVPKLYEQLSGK
Chain of Mitotic checkpoint serine/threonine-protein kinase BUB1 (O43683 whole entry): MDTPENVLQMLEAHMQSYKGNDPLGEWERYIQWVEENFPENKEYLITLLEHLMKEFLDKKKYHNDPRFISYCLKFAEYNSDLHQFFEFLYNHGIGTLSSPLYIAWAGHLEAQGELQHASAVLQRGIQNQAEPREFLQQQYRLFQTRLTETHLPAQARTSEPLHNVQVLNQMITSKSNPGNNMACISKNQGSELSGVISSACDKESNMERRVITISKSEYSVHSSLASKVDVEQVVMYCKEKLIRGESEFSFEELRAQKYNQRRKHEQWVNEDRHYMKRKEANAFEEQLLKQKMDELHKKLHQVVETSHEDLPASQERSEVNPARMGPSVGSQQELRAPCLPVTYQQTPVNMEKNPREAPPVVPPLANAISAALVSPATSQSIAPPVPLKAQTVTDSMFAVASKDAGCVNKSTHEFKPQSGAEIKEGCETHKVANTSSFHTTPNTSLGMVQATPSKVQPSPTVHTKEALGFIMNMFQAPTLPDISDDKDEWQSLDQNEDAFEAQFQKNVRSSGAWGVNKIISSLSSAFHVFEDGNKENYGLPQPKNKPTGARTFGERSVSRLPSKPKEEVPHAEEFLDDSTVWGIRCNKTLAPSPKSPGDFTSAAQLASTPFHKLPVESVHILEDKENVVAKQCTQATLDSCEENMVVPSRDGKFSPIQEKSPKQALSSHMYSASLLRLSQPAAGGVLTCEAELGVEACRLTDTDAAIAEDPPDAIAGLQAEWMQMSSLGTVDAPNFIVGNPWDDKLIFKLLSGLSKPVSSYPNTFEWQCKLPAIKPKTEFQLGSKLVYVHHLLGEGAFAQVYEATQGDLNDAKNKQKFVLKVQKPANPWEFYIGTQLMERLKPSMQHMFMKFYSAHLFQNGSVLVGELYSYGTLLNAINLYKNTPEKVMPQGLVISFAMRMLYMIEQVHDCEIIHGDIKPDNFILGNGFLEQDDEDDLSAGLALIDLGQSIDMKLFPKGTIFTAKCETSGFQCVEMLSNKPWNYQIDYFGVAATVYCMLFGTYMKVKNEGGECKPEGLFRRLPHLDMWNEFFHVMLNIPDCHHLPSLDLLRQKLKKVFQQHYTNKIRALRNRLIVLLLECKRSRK
Chain of Focal adhesion kinase 1 (Q05397 whole entry): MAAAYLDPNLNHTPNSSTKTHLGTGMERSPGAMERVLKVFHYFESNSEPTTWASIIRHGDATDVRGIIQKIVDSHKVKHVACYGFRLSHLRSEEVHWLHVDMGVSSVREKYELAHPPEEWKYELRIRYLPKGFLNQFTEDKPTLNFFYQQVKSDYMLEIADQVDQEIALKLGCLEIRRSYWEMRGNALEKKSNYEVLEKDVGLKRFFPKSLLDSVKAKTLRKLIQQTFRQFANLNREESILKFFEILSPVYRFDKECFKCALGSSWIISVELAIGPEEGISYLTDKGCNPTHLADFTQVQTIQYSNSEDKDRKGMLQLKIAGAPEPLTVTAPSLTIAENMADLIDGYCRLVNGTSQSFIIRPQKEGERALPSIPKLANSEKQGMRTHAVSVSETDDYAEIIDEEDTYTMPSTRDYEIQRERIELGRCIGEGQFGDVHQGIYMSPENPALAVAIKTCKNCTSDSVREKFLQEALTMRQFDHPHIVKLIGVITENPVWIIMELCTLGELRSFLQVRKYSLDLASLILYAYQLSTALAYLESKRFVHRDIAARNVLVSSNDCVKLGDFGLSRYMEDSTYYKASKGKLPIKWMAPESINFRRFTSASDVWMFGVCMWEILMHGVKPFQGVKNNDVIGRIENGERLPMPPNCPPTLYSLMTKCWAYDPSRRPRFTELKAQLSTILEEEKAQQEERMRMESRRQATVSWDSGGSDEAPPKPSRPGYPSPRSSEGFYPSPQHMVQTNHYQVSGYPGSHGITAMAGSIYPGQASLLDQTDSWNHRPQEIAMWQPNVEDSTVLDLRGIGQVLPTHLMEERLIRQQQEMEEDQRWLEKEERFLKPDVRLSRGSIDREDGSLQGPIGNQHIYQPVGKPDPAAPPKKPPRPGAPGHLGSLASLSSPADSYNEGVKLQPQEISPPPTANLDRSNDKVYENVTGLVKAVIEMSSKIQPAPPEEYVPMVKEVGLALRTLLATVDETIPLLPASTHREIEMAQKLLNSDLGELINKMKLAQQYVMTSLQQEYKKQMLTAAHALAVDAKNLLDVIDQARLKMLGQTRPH

SMILES | Kd [1] | Kd (Activin receptor type-1B) | Kd [2] | Kd [3] | Kd (Focal adhesion kinase 1) | Kd [4] | Kd [5] | Kd [6]
C[C@@H](NC(=O)c1ncnc(N)c1Cl)c1ncc(C(=O)Nc2cc(C(F)(F)F)c(Cl)cn2)s1 [TOVORAFENIB] | > 30 µM (inactive) | > 30 µM (inactive) | > 30 µM (inactive) | > 30 µM (inactive) | > 30 µM (inactive) | > 30 µM (inactive) | > 30 µM (inactive) | > 30 µM (inactive)
Cc1cc(Nc2ncnc3ccc(NC4=NC(C)(C)CO4)cc23)ccc1Oc1ccn2ncnc2c1 [TUCATINIB] | > 30 µM (inactive) | > 30 µM (inactive) | > 30 µM (inactive) | > 30 µM (inactive) | > 30 µM (inactive) | > 30 µM (inactive) | > 30 µM (inactive) | > 30 µM (inactive)
Cn1ncc(Cl)c1-c1cc(C(=O)N[C@H](CN)Cc2ccc(F)c(F)c2)oc1Cl [UPROSERTIB] | > 30 µM (inactive) | > 30 µM (inactive) | > 30 µM (inactive) | > 30 µM (inactive) | > 30 µM (inactive) | > 30 µM (inactive) | > 30 µM (inactive) | > 30 µM (inactive)
CC(C)c1cc(CNc2nc(Nc3cc(C4CC4)[nH]n3)cc(N3CCN(C)CC3)n2)on1 [XL-228] | > 30 µM (inactive) | > 30 µM (inactive) | > 30 µM (inactive) | > 30 µM (inactive) | 0.022 µM (active) | > 30 µM (inactive) | 4.21 µM | 0.171 µM (active)
C[C@@H](N)c1ccc(C(=O)Nc2ccnc3[nH]ccc23)cc1 [Y-39983] | 50.5 µM (active) | > 30 µM (inactive) | > 30 µM (inactive) | > 30 µM (inactive) | > 30 µM (inactive) | > 30 µM (inactive) | > 30 µM (inactive) | > 30 µM (inactive)
